Results on one compound are retold here after patent publication US9676734B2, “Compounds and methods” (VIRONOVA INFLUENZA AB, priority 2012, dated 2017).

The structures appear in SMILES notation.

The test system of the data set is Caco2. As to the kind of experiment: Caco2 permeability assay. It counts as in vitro ADME. The following applies: relative to Nucleozin. On the procedure: A Caco2 permeability assay was performed using the inventive compound VNFC 0009 as well as Nucleozin.

Regarding `Cc1onc(-c2ccccc2)c1C(=S)N1CCN(c2ccc([N+](=O)[O-])cc2Cl)CC1` [VNFC 0009, (4-(2-chloro-4-nitrophenyl)piperazin-1-yl)(5-methyl-3-phenylisoxazol-4-yl)methanethione], the “Caco2 permeability in the apical to basal direction, higher than that of Nucleozin” value (apical to basal) was “about 30%”. For the same compound, where the note is “basal to apical”, the “basal to apical Caco2 permeability, times lower than that of Nucleozin” value is about 7 times.
